This note sets out measurements from publication PMC10472861, “Potent inhibition of human tyrosinase inhibitor by verproside from the whole plant of Pseudolysimachion rotundum var. subintegrum” (Journal of Enzyme Inhibition and Medicinal Chemistry, 2023).

One series concerns B16F10 cells. Briefly: CCK-8 cell viability assay, B16F10. It is filed as cell-based, murine. The note with it: 48 h. The method, then: (§1) The B16F10 melanoma and Melan-A normal murine melanocyte cells were purchased from the American Type Culture Collection (ATCC), respectively. The B16F10 cells were cultured in complete Dulbecco's Modified Eagle's Medium (DMEM high glucose, Gibco) supplemented with 10% (v/v) Fetal Bovine Serum (FBS, Gibco, USA), 100 U/mL penicillin, 50 μg/ml streptomycin. The Melan-A cells were cultured in RPMI -1640 medium supplemented with 10% FBS, 2 mM L -glutamine, 200 nM 12 -o-tetradecanoyl phorbol -13-acetate (Sigma, USA), 100 U/mL penicillin, 50 μ g/ml streptomycin, and grown in a humidified atmosphere containing 5% CO 2 in ai r at 37°C.
(§2) The cells were seeded in 96 -well plates at a density of 5 × 10^3 cells/well in cultured medium. The cells were treated with the corresponding concentrations of verproside for 48 h. Cell viability was measured in triplicate using a Cell Counting Kit -8 (CCK -8; Dojindo Molecular Technologies, Rockville, MD, USA) . Absorbance was determined using an Epoch microplate reader (BioTek Instruments, Winooski, VT, USA, #CK04) and calculated as a relative percentage (%) of the control […]
(§3) Figure S4 . The cell viability by verproside in B16F10 and Melna -A cells. (A) CCK -8 assays in B16F10 cells. (B) CCK -8 assays in Melna -A cells.
(§4) (1 picture or pasted object on this page, not shown here)
For orientation: Tetrazolium assays rely on reduction of a dye to a coloured formazan, in cell work by metabolically active cells.

Another series has as its system Melan-A cells. The series can be described thus: CCK-8 cell viability assay, Melan-A. The note with it: 48 h. It is filed as cell-based, murine. How it is done: as §1, §2, §3, §4
The target of series [1] is T1, mushroom tyrosinase (Agaricus bisporus, UniProt C7FF04).
T1 construct: purchased Sigma Chemical Co. T3824-50KU
The series can be described thus: Affinity-based time-dependent assay (slow-binding kinetics). In kind it is biochemical. The note with it: for Time dependence of inhibition: mushroom tyrosinase, L-tyrosine. How it is done: Time-dependent assays were carried out using 144 U of mushroom tyrosinase and L-tyrosine as the substrate in 0.25 M phosphate buffer (pH 6.8) at 30 °C. […] The data were analysed using a nonlinear regression program [SigmaPlot (SPCC Inc., Chicago, IL)] to give the individual parameters for each curve; vi (initial velocity), vs (steady–state velocity), kobs (apparent first–order rate constant for the transition from vi to vs), A (intensity), A0 (included to correct any possible deviation in the baseline), and Ki^app (apparent Ki) according to Equations. 2–4[26–28]: (2) A=vst + (vi–vs)[1 – exp (–kobst)]/kobs (3) v/v0= exp(−kobst) (4) kobs=k6+ [(k5 × [I])/(Ki^app + [I])]

The target in series [2] is T2, recombinant human tyrosinase (hTyr) (Homo sapiens, UniProt P14679).
T2 construct: His-tag; purchased Enzo Life Sciences BML-SE535-0100
T2 sequence (P14679 19-529): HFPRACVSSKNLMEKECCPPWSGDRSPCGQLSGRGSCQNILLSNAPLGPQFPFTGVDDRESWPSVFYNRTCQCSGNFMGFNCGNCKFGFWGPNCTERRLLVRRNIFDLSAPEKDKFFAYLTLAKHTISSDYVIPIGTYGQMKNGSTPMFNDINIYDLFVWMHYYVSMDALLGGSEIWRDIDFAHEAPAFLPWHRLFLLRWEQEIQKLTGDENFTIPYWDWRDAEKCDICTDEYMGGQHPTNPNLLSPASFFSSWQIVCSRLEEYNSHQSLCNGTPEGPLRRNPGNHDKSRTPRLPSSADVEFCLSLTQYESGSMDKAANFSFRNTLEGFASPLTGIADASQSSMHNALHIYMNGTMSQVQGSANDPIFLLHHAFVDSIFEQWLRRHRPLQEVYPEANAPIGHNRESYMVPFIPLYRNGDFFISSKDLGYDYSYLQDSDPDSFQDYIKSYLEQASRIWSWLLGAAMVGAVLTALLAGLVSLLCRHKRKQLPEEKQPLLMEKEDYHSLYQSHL
The series can be described thus: Human tyrosinase inhibition, L-tyrosine substrate. It is filed as biochemical.

For series [3], the target named is T3, Mushroom tyrosinase (mTyr) (Agaricus bisporus, UniProt C7FF04).
T3 construct: purchased Sigma Chemical Co. T3824-50KU
The series can be described thus: Mushroom tyrosinase inhibition, L-tyrosine substrate (monophenolase). It is filed as biochemical. The note with it: for Type of inhibition (monophenolase): L-tyrosine, Lineweaver-Burk and Dixon plots.
Target sequence in this assay (C7FF04 1-392): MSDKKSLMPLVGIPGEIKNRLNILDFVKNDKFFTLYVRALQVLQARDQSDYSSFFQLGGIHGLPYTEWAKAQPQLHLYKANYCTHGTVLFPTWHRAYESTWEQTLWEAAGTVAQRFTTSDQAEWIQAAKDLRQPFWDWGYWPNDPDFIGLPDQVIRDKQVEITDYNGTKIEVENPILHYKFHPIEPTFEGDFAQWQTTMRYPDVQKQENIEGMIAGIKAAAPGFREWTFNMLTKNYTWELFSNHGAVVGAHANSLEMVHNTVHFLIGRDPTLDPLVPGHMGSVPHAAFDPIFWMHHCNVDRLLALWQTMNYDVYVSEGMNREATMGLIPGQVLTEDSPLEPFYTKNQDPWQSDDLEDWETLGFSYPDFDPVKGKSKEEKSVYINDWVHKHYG

In series [4] the target is T3, Mushroom tyrosinase (mTyr). The series can be described thus: Mushroom tyrosinase inhibition, L-DOPA substrate (diphenolase). It is filed as biochemical.
Target sequence in this assay (C7FF04 1-392 limits assumed): as the sequence (C7FF04 1-392) above
Series [5] concerns the target T1, mushroom tyrosinase. The series can be described thus: Affinity-based ultrafiltration UPLC-QTOF-MS binding experiment. How it is done: (§5) Affinity-based ultrafiltration was performed as previously described by Zuo et al. and Wang et al.[15]^,[19]^,[23]. First, […] of 0.25 M phosphate buffer (pH 6.8) with 10% glycerol was added to 13 μL of mushroom tyrosinase (144 U in the same phosphate buffer solution) and 100 μL of 1000 mg/mL extract (the test solution was consistently 3.3%). The final concentration of the extract was adjusted to 1000 ppm. The mixture was incubated for 15 or 50 min at 37 °C on a plate shaker. Then, the sample was centrifuged at 13,000 rpm for 20 min, and the supernatant was collected for analysis. The supernatant solution was filtered through a membrane (PTFE 0.2 μm, hydrophobic, Advantec, Japan), and 2 μL of each solution was injected for UPLC-PDA-QTOF-MS analysis.
(§6) The compounds from the P. rotundum var. subintegrum extract were analysed by UPLC-PDA-ESI-QTOF-MS. […] MS was performed in negative ion mode ([M − H]^−). N2 was used as the desolvation gas, the desolvation temperature was set to 350 °C at a flow rate of 400 L/h with a source temperature of 100 °C. The capillary and cone voltages were set to 2300 and 50 V, respectively. The data for each sample were collected with a scan time of 0.25 s and a 0.01 s interscan delay. Exact MS, MS/MS, and elemental analysis were confirmed using MassLynx software incorporated into the Waters instrument.

Series [6] concerns mushroom tyrosinase. The description is as above. Particulars: UPLC-QTOF-MS peak area in 1000 ppm extract, not exposed to enzyme. How it is done: as §5, §6
For series [7], the target named is T2, recombinant human tyrosinase (hTyr). Briefly: Human tyrosinase inhibition, L-DOPA substrate. In kind it is biochemical. The method, then: The enzymatic activities of tyrosinase were tested in vitro with the substrates and inhibitors known to interact with mushroom and mammalian tyrosinases (http://www.brenda-enzymes.info). The Michaelis-Menten constant (Km) of proteins was calculated from Lineweaver-Burk plots for 1/V0 versus 1/[substrate]. Mushroom tyrosinase (mTyr, EC 1.14.18.1, Sigma Chemical Co., T3824-50KU) was used as described previously[9] with some modifications with either 3,4-Dihydroxy-L-phenylalanine (L-DOPA, D9628-5G) or L-tyrosine (T3754-50G) as the substrate. In the spectrophotometric experiments, the initial velocity (vi) of enzymatic activity was monitored by observing dopachrome formation at 475 nm with a UV–vis spectrophotometer (SpectraMax M4, Molecular Devices, Sunnyvale, CA, USA) at 37 °C. The reaction was performed in a 96-well plate. All samples were first dissolved in dimethyl sulfoxide (DMSO) at a concentration of 2 mM. […] The activity of recombinant human tyrosinas (hTyr, His-tag, Enzo® Life Sciences, NY, USA, Cat. No. BML-SE535-0100) was determined using L-DOPA as a substrate, and the procedure involved a previously described absorption assay. […] The reaction was incubated for 10 min at 37 °C and was monitored at 475 nm for dopachrome formation on a SpectraMax M4 multimode detection platform (Molecular Devices). […]

Structures are written as SMILES. “Also recorded” adds a separate entry of the source.

T1 sequence (C7FF04 1-392): as above

Consider `O=C(OC1C2C=COC(OC3OC(CO)C(O)C(O)C3O)C2C2(CO)OC12)c1ccc(O)c(O)c1` (centres unmarked) [Verproside (1), Verproside], for which the Cell viability entry in the series on B16F10 cells and in the series on Melan-A cells was “did not significantly affect cell viability” throughout. Further, the k5 at mushroom tyrosinase [1] (fit of kobs to Equation (4)) was 0.04496 s⁻¹. In addition, the k6 on mushroom tyrosinase [1] (fit of kobs to Equation (4)) came out at 0.00001103 s⁻¹. The Ki at mushroom tyrosinase [1] (fit of kobs to Equation (4), read-out: Ki^app (apparent Ki)) was 2.4 mM; in series [3] (mTyr, L-tyrosine (monophenolase), read-out: Ki (inhibition constant)), 5.1 µM. The “Time dependence of inhibition” value is reported as “time-dependent; also recorded: slow-binding” at mushroom tyrosinase [1] (listed as verproside) and “time-dependent inhibition” at mushroom tyrosinase [1] (listed as verproside (1)). The 50% inhibitory concentration (IC50) – broadly, the midpoint of a concentration-inhibition curve – came out at 197 µM in series [2] (hTyr, L-tyrosine substrate); 31.2 ± 2.1 µM in [3] (mTyr, L-tyrosine substrate (monophenolase), read-out: Mushroom Tyrosinase L-Tyrosine IC50); 177 ± 33.1 µM in series [4] (mTyr, L-DOPA substrate, read-out: Mushroom Tyrosinase L-DOPA IC50); 843 µM in series [7]. In series [2] (ratio of hTyr IC50 values, kojic acid / verproside), the “Efficacy relative to positive control kojic acid in hTyr” value came to 5.6 fold. Besides, the “Type of inhibition (monophenolase)” value is “competitive inhibition” in series [3] (mTyr) and “competitive” in series [3] (mTyr, listed as verproside). Besides, the inhibition (as a rule, the change of the read-out against control, counted positive when it falls) at 100 µM in [3] (read-out: Mushroom Tyrosinase L-Tyrosine 100 µM inhibition (%)) came out at 98.4%. In addition, the “Type of inhibition (diphenolase)” value in series [4] (mTyr diphenolase activity) is given as “competitive inhibition”. Also, the “after tyrosinase (area)” value at mushroom tyrosinase [5] (UPLC-QTOF-MS peak area in 1000 ppm extract after incubation with mTyr) turned out to be 61907 area. The “Relative metabolite intensity upon treatment with mTyr” value on mushroom tyrosinase [5] (extract treated with mTyr, 15 min preincubation) is “significantly reduced”. The “Control (area)” value with mushroom tyrosinase [6] amounted to 112306 area.
